# Reference: the kinase profiling compilation of Christmann-Franck et al. (2016)
# Columns and labels:
# Assay in all cases: radiometric filter-binding kinase assay
# [1] = system: AKT1 (human), P31749 [S473D]
# [2] = system: AKT2 (human), P31751 [S474D]
# [3] = target: CSNK2A1 (human) (UniProt P68400)
# [4] = target: DYRK3 (human) (UniProt O43781)
# [5] = target: EPHA2 (human) (UniProt P29317)
# [6] = target: EPHB1 (human) (UniProt P54762)
# [7] = target: FGFR1 (human) (UniProt P11362)
# [8] = target: GSK3B (human) (UniProt P49841)
# [9] = target: INSR (human) (UniProt P06213)
# [10] = target: INSRR (human) (UniProt P14616)
# [11] = target: IRAK4 (human) (UniProt Q9NWZ3)
# [12] = system: LCK (mouse); settings: accession and sequence are those of the human protein
# [13] = target: MAP2K1 (human) (UniProt Q02750)
# [14] = target: MAP2K6 (human) (UniProt P52564)
# [15] = target: MAP3K9 (human) (UniProt P80192)
# [16] = target: MAPK10 (human) (UniProt P53779)
# [17] = target: MAPK11 (human) (UniProt Q15759)
# [18] = target: MAPK13 (human) (UniProt O15264)
# [19] = target: MARK1 (human) (UniProt Q9P0L2)
# [20] = target: MARK2 (human) (UniProt Q7KZI7)
# [21] = target: MKNK1 (human) (UniProt Q9BUB5)
# [22] = target: MYLK (human) (UniProt Q15746)
# [23] = target: NEK2 (human) (UniProt P51955)
# [24] = target: NEK6 (human) (UniProt Q9HC98)
# [25] = system: PAK2 (human), Q13177 [T402E]
# [26] = target: PHKG1 (human) (UniProt Q16816)
# [27] = target: PIM2 (human) (UniProt Q9P1W9)
# [28] = target: PIM3 (human) (UniProt Q86V86)
# [29] = target: PKN2 (human) (UniProt Q16513)
# [30] = system: ROCK2 (rat); settings: accession and sequence are those of the human protein
# [31] = system: RPS6KB1 (human), P23443 [T412E]
# [32] = target: SRPK1 (human) (UniProt Q96SB4)
# [33] = target: STK11 CAB39 STRADA (human) (UniProt Q9Y376+Q7RTN6+Q15831)
# [34] = target: SYK (human) (UniProt P43405)
# [35] = target: TBK1 (human) (UniProt Q9UHD2)
# [36] = target: TTK (human) (UniProt P33981)
# Chain of MAP2K6 (human) (P52564 whole entry, looked up): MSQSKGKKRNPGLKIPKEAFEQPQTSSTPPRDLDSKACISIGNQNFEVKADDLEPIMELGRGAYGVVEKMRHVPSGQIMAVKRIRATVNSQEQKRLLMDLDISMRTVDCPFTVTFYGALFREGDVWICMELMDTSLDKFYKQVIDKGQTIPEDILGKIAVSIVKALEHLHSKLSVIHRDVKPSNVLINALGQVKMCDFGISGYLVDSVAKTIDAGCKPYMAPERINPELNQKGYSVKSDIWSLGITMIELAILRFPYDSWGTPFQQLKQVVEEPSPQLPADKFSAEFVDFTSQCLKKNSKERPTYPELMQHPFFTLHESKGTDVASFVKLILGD
# Chain of MAPK10 (human) (P53779 whole entry, looked up): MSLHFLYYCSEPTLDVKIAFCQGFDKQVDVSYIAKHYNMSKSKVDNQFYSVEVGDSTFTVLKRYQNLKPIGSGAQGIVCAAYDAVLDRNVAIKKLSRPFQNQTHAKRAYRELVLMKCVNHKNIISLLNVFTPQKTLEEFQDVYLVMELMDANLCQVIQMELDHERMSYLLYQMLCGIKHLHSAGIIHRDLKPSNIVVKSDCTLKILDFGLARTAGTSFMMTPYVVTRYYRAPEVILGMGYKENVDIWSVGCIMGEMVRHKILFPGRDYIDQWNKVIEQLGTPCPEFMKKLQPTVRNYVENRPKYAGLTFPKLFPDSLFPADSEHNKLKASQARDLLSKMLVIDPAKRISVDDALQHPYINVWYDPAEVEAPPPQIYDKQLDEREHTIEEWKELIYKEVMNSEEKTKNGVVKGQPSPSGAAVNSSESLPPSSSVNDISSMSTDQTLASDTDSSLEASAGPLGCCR
# Chain of MAPK13 (human) (O15264 whole entry, looked up): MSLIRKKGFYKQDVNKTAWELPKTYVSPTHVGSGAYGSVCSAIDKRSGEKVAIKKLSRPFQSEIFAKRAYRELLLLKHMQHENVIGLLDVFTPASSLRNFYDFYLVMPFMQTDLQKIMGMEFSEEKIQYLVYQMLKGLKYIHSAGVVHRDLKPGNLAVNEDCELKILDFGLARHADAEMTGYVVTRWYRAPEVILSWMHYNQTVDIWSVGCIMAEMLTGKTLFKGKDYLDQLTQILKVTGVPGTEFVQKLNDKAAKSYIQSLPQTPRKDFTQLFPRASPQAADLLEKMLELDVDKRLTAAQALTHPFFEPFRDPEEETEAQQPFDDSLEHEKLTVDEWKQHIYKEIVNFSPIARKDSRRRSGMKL
# Chain of AKT2 (human), P31751 [S474D] (P31751 whole entry S474D, looked up): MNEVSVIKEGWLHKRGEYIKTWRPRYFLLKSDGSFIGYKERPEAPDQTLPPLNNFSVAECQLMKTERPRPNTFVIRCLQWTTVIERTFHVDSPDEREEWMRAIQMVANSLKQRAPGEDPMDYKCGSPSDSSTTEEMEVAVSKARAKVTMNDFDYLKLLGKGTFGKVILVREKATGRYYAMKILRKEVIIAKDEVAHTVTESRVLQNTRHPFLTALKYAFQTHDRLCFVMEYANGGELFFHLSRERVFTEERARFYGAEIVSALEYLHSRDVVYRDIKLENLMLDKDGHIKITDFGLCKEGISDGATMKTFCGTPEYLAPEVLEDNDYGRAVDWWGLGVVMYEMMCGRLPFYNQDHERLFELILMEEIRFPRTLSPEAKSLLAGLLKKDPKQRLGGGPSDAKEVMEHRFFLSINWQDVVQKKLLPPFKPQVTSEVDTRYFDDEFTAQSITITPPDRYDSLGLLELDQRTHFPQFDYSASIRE
# Chain of CSNK2A1 (human) (P68400 whole entry, looked up): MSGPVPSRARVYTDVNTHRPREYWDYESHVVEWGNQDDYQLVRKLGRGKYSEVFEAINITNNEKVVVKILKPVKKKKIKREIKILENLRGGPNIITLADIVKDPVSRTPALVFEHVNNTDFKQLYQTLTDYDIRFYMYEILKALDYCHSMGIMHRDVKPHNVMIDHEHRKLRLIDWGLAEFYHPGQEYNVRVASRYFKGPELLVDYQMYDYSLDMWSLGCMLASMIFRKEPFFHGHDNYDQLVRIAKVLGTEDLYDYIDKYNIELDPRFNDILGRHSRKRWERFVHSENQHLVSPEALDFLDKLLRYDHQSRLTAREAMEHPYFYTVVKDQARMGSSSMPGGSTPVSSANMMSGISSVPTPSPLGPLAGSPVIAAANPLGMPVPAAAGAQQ
# Chain of INSR (human) (P06213 whole entry, looked up): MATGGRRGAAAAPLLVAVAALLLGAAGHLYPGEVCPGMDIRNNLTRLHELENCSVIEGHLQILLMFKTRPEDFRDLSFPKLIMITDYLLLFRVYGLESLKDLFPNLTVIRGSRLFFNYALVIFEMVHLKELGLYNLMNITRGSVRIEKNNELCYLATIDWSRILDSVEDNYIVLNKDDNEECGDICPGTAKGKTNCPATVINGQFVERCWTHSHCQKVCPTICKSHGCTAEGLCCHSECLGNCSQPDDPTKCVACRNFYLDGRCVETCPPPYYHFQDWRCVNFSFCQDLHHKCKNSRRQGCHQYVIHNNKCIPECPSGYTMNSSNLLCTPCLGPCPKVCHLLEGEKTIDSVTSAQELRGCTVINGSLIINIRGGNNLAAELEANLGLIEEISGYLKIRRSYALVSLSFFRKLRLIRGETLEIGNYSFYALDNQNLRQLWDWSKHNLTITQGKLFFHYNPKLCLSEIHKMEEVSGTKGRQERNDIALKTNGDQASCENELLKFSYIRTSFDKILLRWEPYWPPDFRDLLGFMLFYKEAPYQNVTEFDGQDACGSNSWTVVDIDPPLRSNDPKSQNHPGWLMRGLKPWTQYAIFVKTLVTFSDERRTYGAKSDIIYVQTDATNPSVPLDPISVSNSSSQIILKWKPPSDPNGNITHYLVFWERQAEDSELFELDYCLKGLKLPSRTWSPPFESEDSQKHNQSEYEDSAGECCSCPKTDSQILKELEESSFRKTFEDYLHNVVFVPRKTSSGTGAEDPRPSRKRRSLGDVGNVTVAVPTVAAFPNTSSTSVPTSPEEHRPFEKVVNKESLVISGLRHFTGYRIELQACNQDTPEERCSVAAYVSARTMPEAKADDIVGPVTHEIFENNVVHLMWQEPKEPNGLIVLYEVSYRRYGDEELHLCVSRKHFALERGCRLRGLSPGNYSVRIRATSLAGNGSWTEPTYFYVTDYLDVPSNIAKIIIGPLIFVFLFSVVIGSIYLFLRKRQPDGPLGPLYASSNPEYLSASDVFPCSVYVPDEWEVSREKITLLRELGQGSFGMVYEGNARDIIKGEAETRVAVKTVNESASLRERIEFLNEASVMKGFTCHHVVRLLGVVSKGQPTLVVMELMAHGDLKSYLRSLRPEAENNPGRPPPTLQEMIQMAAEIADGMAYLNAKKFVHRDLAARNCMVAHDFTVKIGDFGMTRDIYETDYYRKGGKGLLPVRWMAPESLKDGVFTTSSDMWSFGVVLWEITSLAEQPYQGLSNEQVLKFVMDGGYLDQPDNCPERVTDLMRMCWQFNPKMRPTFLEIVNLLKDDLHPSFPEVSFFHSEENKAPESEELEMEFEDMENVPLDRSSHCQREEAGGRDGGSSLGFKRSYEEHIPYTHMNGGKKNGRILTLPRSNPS
# Chain of MAPK11 (human) (Q15759 whole entry, looked up): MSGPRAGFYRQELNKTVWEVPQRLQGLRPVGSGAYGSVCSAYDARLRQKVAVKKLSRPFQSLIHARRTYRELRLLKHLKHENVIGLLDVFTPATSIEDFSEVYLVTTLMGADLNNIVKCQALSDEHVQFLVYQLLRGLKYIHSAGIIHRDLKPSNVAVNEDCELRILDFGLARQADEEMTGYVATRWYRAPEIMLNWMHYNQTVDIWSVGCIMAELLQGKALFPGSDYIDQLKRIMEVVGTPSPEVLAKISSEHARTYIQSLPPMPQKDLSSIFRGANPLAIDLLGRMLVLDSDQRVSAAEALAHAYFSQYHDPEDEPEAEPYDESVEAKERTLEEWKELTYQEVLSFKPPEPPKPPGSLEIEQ
# Chain of RPS6KB1 (human), P23443 [T412E] (P23443 whole entry T412E, looked up): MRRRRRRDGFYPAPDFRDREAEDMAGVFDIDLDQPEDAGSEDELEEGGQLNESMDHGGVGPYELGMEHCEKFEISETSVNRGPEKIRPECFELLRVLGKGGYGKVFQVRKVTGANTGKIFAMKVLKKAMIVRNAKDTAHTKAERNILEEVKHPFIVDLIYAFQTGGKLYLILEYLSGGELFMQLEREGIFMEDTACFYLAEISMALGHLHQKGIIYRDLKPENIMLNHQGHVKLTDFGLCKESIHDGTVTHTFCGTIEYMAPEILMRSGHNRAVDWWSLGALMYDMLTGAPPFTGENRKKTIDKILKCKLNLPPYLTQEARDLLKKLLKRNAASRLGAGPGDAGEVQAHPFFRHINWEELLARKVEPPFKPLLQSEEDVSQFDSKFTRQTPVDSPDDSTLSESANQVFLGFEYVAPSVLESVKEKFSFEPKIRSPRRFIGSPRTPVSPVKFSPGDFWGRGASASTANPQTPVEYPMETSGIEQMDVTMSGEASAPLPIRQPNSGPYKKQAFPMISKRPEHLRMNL
# Chain of PIM2 (human) (Q9P1W9 whole entry, looked up): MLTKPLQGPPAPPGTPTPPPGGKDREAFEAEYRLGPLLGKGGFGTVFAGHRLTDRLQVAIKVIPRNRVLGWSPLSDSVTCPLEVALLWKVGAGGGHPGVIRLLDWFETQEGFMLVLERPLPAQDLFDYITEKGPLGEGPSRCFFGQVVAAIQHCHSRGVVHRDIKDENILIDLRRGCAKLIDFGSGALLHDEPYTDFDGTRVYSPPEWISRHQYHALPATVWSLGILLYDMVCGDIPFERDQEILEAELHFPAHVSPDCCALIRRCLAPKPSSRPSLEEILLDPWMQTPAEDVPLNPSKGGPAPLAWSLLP
smiles,measurement,setting,value
NC1(c2ccc(-c3nc4ccn5c(=O)[nH]nc5c4cc3-c3ccccc3)cc2)CCC1,residual activity,[1]; compound 0.1 µM,103%
same,residual activity,[1]; compound 1.0 µM,96%
same,residual activity,[1]; compound 10.0 µM,75%
same,residual activity,[2]; compound 0.1 µM,69%
same,residual activity,[2]; compound 1.0 µM,86%
same,residual activity,[2]; compound 10.0 µM,68%
same,residual activity,[3]; compound 0.1 µM,104%
same,residual activity,[3]; compound 10.0 µM,84%
same,residual activity,[4]; compound 0.1 µM,98%
same,residual activity,[4]; compound 1.0 µM,89%
same,residual activity,[4]; compound 10.0 µM,81%
same,residual activity,[5]; compound 0.1 µM,86%
same,residual activity,[5]; compound 1.0 µM,95%
same,residual activity,[5]; compound 10.0 µM,87%
same,residual activity,[6]; compound 0.1 µM,96%
same,residual activity,[6]; compound 1.0 µM,109%
same,residual activity,[6]; compound 10.0 µM,100%
same,residual activity,[7]; compound 0.1 µM,100%
same,residual activity,[7]; compound 1.0 µM,95%
same,residual activity,[7]; compound 10.0 µM,70%
same,residual activity,[8]; compound 0.1 µM,104%
same,residual activity,[8]; compound 1.0 µM,85%
same,residual activity,[8]; compound 10.0 µM,72%
same,residual activity,[9]; compound 1.0 µM,79%
same,residual activity,[9]; compound 10.0 µM,83%
same,residual activity,[10]; compound 0.1 µM,95%
same,residual activity,[10]; compound 1.0 µM,80%
same,residual activity,[10]; compound 10.0 µM,61%
same,residual activity,[11]; compound 0.1 µM,106%
same,residual activity,[11]; compound 1.0 µM,92%
same,residual activity,[11]; compound 10.0 µM,99%
same,residual activity,[12]; compound 0.1 µM,106%
same,residual activity,[12]; compound 1.0 µM,112%
same,residual activity,[12]; compound 10.0 µM,80%
same,residual activity,[13]; compound 0.1 µM,83%
same,residual activity,[13]; compound 1.0 µM,72%
same,residual activity,[13]; compound 10.0 µM,90%
same,residual activity,[14]; compound 0.1 µM,109%
same,residual activity,[14]; compound 1.0 µM,98%
same,residual activity,[14]; compound 10.0 µM,104%
same,residual activity,[15]; compound 0.1 µM,110%
same,residual activity,[15]; compound 1.0 µM,93%
same,residual activity,[16]; compound 0.1 µM,93%
same,residual activity,[16]; compound 1.0 µM,91%
same,residual activity,[16]; compound 10.0 µM,84%
same,residual activity,[17]; compound 0.1 µM,99%
same,residual activity,[17]; compound 1.0 µM,77%
same,residual activity,[17]; compound 10.0 µM,76%
same,residual activity,[18]; compound 0.1 µM,100%
same,residual activity,[18]; compound 1.0 µM,90%
same,residual activity,[18]; compound 10.0 µM,106%
same,residual activity,[19]; compound 0.1 µM,113%
same,residual activity,[19]; compound 1.0 µM,88%
same,residual activity,[19]; compound 10.0 µM,98%
same,residual activity,[20]; compound 0.1 µM,102%
same,residual activity,[20]; compound 1.0 µM,97%
same,residual activity,[20]; compound 10.0 µM,94%
same,residual activity,[21]; compound 0.1 µM,105%
same,residual activity,[21]; compound 1.0 µM,104%
same,residual activity,[21]; compound 10.0 µM,58%
same,residual activity,[22]; compound 0.1 µM,87%
same,residual activity,[22]; compound 1.0 µM,85%
same,residual activity,[22]; compound 10.0 µM,72%
same,residual activity,[23]; compound 0.1 µM,95%
same,residual activity,[23]; compound 1.0 µM,87%
same,residual activity,[23]; compound 10.0 µM,87%
same,residual activity,[24]; compound 0.1 µM,106%
same,residual activity,[24]; compound 1.0 µM,98%
same,residual activity,[24]; compound 10.0 µM,90%
same,residual activity,[25]; compound 0.1 µM,98%
same,residual activity,[25]; compound 1.0 µM,94%
same,residual activity,[25]; compound 10.0 µM,103%
same,residual activity,[26]; compound 0.1 µM,109%
same,residual activity,[26]; compound 1.0 µM,98%
same,residual activity,[26]; compound 10.0 µM,68%
same,residual activity,[27]; compound 0.1 µM,86%
same,residual activity,[27]; compound 1.0 µM,105%
same,residual activity,[27]; compound 10.0 µM,97%
same,residual activity,[28]; compound 0.1 µM,89%
same,residual activity,[28]; compound 1.0 µM,83%
same,residual activity,[28]; compound 10.0 µM,51%
same,residual activity,[29]; compound 0.1 µM,95%
same,residual activity,[29]; compound 1.0 µM,96%
same,residual activity,[29]; compound 10.0 µM,92%
same,residual activity,[30]; compound 0.1 µM,85%
same,residual activity,[30]; compound 1.0 µM,87%
same,residual activity,[30]; compound 10.0 µM,91%
same,residual activity,[31]; compound 0.1 µM,84%
same,residual activity,[31]; compound 1.0 µM,84%
same,residual activity,[31]; compound 10.0 µM,84%
same,residual activity,[32]; compound 0.1 µM,107%
same,residual activity,[32]; compound 1.0 µM,106%
same,residual activity,[32]; compound 10.0 µM,116%
same,residual activity,[33]; compound 0.1 µM,102%
same,residual activity,[33]; compound 1.0 µM,85%
same,residual activity,[33]; compound 10.0 µM,86%
same,residual activity,[34]; compound 0.1 µM,116%
same,residual activity,[34]; compound 1.0 µM,100%
same,residual activity,[34]; compound 10.0 µM,96%
same,residual activity,[35]; compound 0.1 µM,88%
same,residual activity,[35]; compound 1.0 µM,102%
same,residual activity,[35]; compound 10.0 µM,89%
same,residual activity,[36]; compound 0.1 µM,106%
same,residual activity,[36]; compound 1.0 µM,105%
same,residual activity,[36]; compound 10.0 µM,80%
NCC(=O)Nc1ccc(-n2nc(C(F)(F)F)cc2-c2ccc3c(ccc4ccccc43)c2)cc1,residual activity,[1]; compound 1.0 µM,91%
same,residual activity,[1]; compound 10.0 µM,53%
same,residual activity,[2]; compound 1.0 µM,87%
same,residual activity,[2]; compound 10.0 µM,54%
same,residual activity,[3]; compound 1.0 µM,111%
same,residual activity,[3]; compound 10.0 µM,79%
same,residual activity,[4]; compound 1.0 µM,108%
same,residual activity,[5]; compound 1.0 µM,92%
same,residual activity,[5]; compound 10.0 µM,94%
same,residual activity,[6]; compound 1.0 µM,72%
same,residual activity,[6]; compound 10.0 µM,67%
same,residual activity,[7]; compound 1.0 µM,111%
same,residual activity,[8]; compound 1.0 µM,110%
same,residual activity,[8]; compound 10.0 µM,119%
same,residual activity,[9]; compound 1.0 µM,98%
same,residual activity,[9]; compound 10.0 µM,94%
same,residual activity,[10]; compound 1.0 µM,91%
same,residual activity,[10]; compound 10.0 µM,75%
same,residual activity,[11]; compound 1.0 µM,84%
same,residual activity,[11]; compound 10.0 µM,79%
same,residual activity,[12]; compound 1.0 µM,84%
same,residual activity,[12]; compound 10.0 µM,247%
same,residual activity,[13]; compound 1.0 µM,108%
same,residual activity,[13]; compound 10.0 µM,107%
same,residual activity,[14]; compound 1.0 µM,82%
same,residual activity,[14]; compound 10.0 µM,74%
same,residual activity,[15]; compound 1.0 µM,99%
same,residual activity,[15]; compound 10.0 µM,80%
same,residual activity,[16]; compound 1.0 µM,85%
same,residual activity,[16]; compound 10.0 µM,86%
same,residual activity,[17]; compound 1.0 µM,92%
same,residual activity,[17]; compound 10.0 µM,95%
same,residual activity,[18]; compound 1.0 µM,96%
same,residual activity,[18]; compound 10.0 µM,70%
same,residual activity,[19]; compound 1.0 µM,87%
same,residual activity,[19]; compound 10.0 µM,79%
same,residual activity,[20]; compound 1.0 µM,94%
same,residual activity,[20]; compound 10.0 µM,89%
same,residual activity,[21]; compound 1.0 µM,86%
same,residual activity,[21]; compound 10.0 µM,83%
same,residual activity,[22]; compound 1.0 µM,109%
same,residual activity,[23]; compound 1.0 µM,96%
same,residual activity,[23]; compound 10.0 µM,92%
same,residual activity,[24]; compound 1.0 µM,115%
same,residual activity,[24]; compound 10.0 µM,63%
same,residual activity,[25]; compound 1.0 µM,107%
same,residual activity,[25]; compound 10.0 µM,75%
same,residual activity,[26]; compound 1.0 µM,79%
same,residual activity,[26]; compound 10.0 µM,72%
same,residual activity,[27]; compound 1.0 µM,93%
same,residual activity,[27]; compound 10.0 µM,98%
same,residual activity,[28]; compound 1.0 µM,99%
same,residual activity,[28]; compound 10.0 µM,64%
same,residual activity,[29]; compound 1.0 µM,85%
same,residual activity,[29]; compound 10.0 µM,63%
same,residual activity,[30]; compound 1.0 µM,88%
same,residual activity,[30]; compound 10.0 µM,87%
same,residual activity,[31]; compound 1.0 µM,86%
same,residual activity,[31]; compound 10.0 µM,21%
same,residual activity,[32]; compound 1.0 µM,94%
same,residual activity,[32]; compound 10.0 µM,80%
same,residual activity,[33]; compound 1.0 µM,103%
same,residual activity,[33]; compound 10.0 µM,99%
same,residual activity,[34]; compound 10.0 µM,85%
same,residual activity,[35]; compound 10.0 µM,83%
same,residual activity,[36]; compound 1.0 µM,90%
same,residual activity,[36]; compound 10.0 µM,86%
